# Measurements published in patent publication US11370775B2, “Substituted benzimidazole derivatives as D-amino acid oxidase (DAAO) inhibitors” (NATIONAL TAIWAN UNIVERSITY, priority 2016, dated 2022).
# Key:
# Format in all cases: in vivo
# [1] = system: MK-801-induced PPI deficit in C57BL/6 mice; test: Prepulse inhibition, MK-801-induced PPI deficit; conditions: MK-801 0.2 mg/kg i.p.
# Description: (§1) The NMDA-receptor antagonist MK-801-induced negative or cognitive deficits in C57BL/6 mice were in a well-established drug-induced schizophrenia mouse model and as a useful pharmacological animal model to identify if the RS-D7, its analog and its prodrug improve the symptoms through the NMDA receptor.
# (§2) All wild-type (WT) mice used in this study were backcrossed onto a C57BL/6J background from the Laboratory Animal Center of National Taiwan University Hospital, and all behavioral examinations were conducted in WT mice. For acclimatizing to laboratory conditions, the mice were allowed free access to food and water and were housed in groups with a 12 hours light-dark cycle in a temperature and humidity controlled room of the Psychology Department, National Taiwan University. All animals within the age of 3 months were housed individually one week before experiment testing with food and water available ad libitum. In the beginning of the experiments, the mice were handled and weighted daily at least 1 week before the behavioral experiments. The entire animal procedures were performed according to protocols approved by the Animal Care and Use Committee established by the National Taiwan University.
# (§3) MK-801 was dissolved in saline and administered at a volume of 0.01 ml/g body weight. RS-D7, Drug 12083 (analog of RS-D7) and was freshly dissolved in 1% CMC to the concentration of 2 mg/ml before usage. Prodrug 28095 was freshly dissolved in NMP:HP-beta-CD:H2O (5:25:70) to the concentration of 2 mg/ml before usage. All animals were given vehicle (saline) or MK-801 (0.2 mg/kg, i.p.) 25 minutes before the behavioral experiments. Both vehicle (1% CMC or NMP:HP-beta-CD:H2O) and experimental groups (RS-D7, Drug 12083 or Prodrug 28095) were treated after 5 minutes MK-801 administration with the appropriate dose via P.O. injections (at a volume of 0.01 ml/g body weight).
# (§4) For investigating the treatment effect of RS-D7 for negative and cognitive symptoms, a series of three behavioral tests (run from the first to the third week), which included open field, sucrose preference test and prepulse inhibition were performed in sequence with a 1-week interval between tests.
# To assess the sensorimotor gating function, each mouse was tested with the SR-LAB startle apparatus (San Diego Instruments, San Diego, Calif., USA). The background noise was 72 dB during testing. Each session was initiated with a 5 minutes acclimatization period followed by 64 trials, consisting of pulse-alone (P-alone) trials, prepulse pulse (pp+P) trials, and no stimulation (nostim) trials. A P-alone trial was a 120 dB white noise burst of 40 msec. In the pp+P trials, the 120 dB pulse was preceded (by 100 msec) by a 20 msec of white noise prepulse burst of 78 dB (PP6), 82 dB (PP10), or 90 dB (PP18). The nostim trials consisted of background noise only. The session began and ended with a block of six presentations of the P-alone trial. Between these two blocks, the rest of the 52 trials were performed pseudorandomly and separated by intertrial intervals of 15 sec on average (varying between 10 and 20 sec). PPI was calculated as a percentage of the startle response using the formula: % PPI=100× [(P-alone score)-(pp+P score)]/(pulse-alone score), where the pulse-alone score was the average of the pulse-alone values from the in-between block of 52 trials.
# [2] = system: MK-801-induced anhedonia in C57BL/6 mice; test: Sucrose preference test, MK-801-induced anhedonia
# Description: as §1, §2, §3, §4
# To assess the anhedonia, one of the negative symptoms of schizophrenia, all mice underwent 4-day testing. In the beginning of the sucrose preference, all mice were deprived of water for 23 hours in all the experiment from one day before the first day. On the first day, each mouse was given free access to 2 identical bottles with water for 1 hour. Then, the 2 identical bottles were replaced that one filled with 1% (wt/vol) sucrose solution and the other with water on the second day. On the third and fourth day, each mouse was received MK-801 and RS-D7 treatment before the experiment, and also free accessed to bottles for 1 hour. After the experiment, the 2 bottles were weighted to measure the 1-hour consumption of sucrose solution and water. The sucrose preference percentage (SPP) was calculated using the following formula: % SPP=sucrose solution consumption (g)×100%/[water consumption (g)+sucrose solution consumption (g)].
# [3] = system: MK-801-induced hyperlocomotion in C57BL/6 mice; test: Open field, MK-801-induced hyperlocomotion
# Description: as §1, §2, §3, §4
# To assess spontaneous locomotor activity, each subject was placed into the center of an open-field apparatus (25.40*25.40*40.64 cm^3, Coulbourn Instruments, Whitehall, Pa., USA) under dim lighting condition (60 lx). Motor activity parameters (including total travel distance and travel distance per 10 minutes) were monitored and recorded over a 60 minutes period by using Smart video tracking software (Panlab, Harvard apparatus, US). For comparing the treatment effects of different treatment groups, the percentage change of rescue effect on MK-801-induced hyperlocomotion was calculated using the following formula: %=(rescue effect of drug−MK-801 effect)×100%/MK-801 effect.
smiles,measurement,setting,value
"COc1c(C)cnc(C[S+]([O-])c2nc3cc(OC(=O)CC(C)CC(C)(C)C)ccc3[nH]2)c1C (stereo not drawn) [compound 28095, 2-(((4-methoxy-3,5-dimethylpyridin-2-yl)methyl)sulfinyl)-1H-benzo[d]imidazol-5-yl 3,5,5-trimethylhexanoate]",Effect on MK-801 induced PPI deficit,[1]; 100 mg/kg P.O.,significantly alleviated MK-801 induced PPI deficit
same,Effect on MK-801 induced PPI deficit,[1]; 200 mg/kg P.O.,significantly alleviated MK-801 induced PPI deficit
same,Effect on MK-801 induced anhedonia (sucrose preference),"[2]; 200 mg/kg P.O., MK-801 0.2 mg/kg i.p., mice",normalized MK-801 induced anhedonia
same,Effect on anhedonia after acute MK-801 injection (FIG. 2),[2]; different dosages,rescue the anhedonia after acute MK-801 injection
same,Effect on MK-801 induced hyperlocomotion (open field),"[3]; 100 mg/kg P.O., MK-801 0.2 mg/kg i.p., mice",alleviated MK-801 induced hyperlocomotion
same,Effect on MK-801-induced hyperlocomotion (FIG. 1),"[3]; different dosages, compared to the MK-801 group",can rescue the MK-801-induced hyperlocomotion
